The nature of series [1]: plasma pharmacokinetics across mouse strains and doses. In kind it is in vivo. Here is the method:
by determining the absorbance at 570 nm of SRB stain dissolved in Tris base (10 mM, pH 10.5) using a spectrophotometer (BMG Labtech).
In vivo pharmacokinetic analyses
All animal experiments were performed in accordance with the Animals (Scientific Procedures) 1986 Act. 8-9 week old mice were purchased from Charles River Laboratories and housed under specific pathogen-free conditions under 12 hour light/dark cycles.
Female CD-1, CD-1 nude, BALB/c nude and C57BL/6 mice were treated with NU5455 (30 or 100 mg/kg prepared in 1% (v/v) acetic acid or NMP:Encapsin (30% aq):PEG4000 (1:6:3 v/v/v) dosed by oral gavage. Blood samples were collected into heparinized tubes at 15, 30, 60, 180 and 360 minutes post-gavage.
Blood samples were centrifuged at 6700 x g for 3 minutes, the plasma removed and stored at -20°C prior to analysis for drug by HPLC with fluorescence detection. Aliquots of plasma (50 µl) were vigorously vortexed with acetonitrile (450 µl) and the precipitate removed by centrifugation at 6700 x g for 5 minutes. […]
Samples (20 µl) were applied to a 10 x 0.46 cm Genesis C18 4 µm column (Grace Vydac) fitted with an in-line filter. […] Analytes were detected by fluorescence at 390 nm following excitation at 242 nm. Plasma concentrations were determined using linear standard curves (0.01 µM – 10 µM, R2 > 0.98) generated by extracting compounds from […]

In another series the test system is MCF7 cells. Briefly: γH2AX foci nuclear fluorescence after 2.5 Gy. The format is cell-based, Human. The note with it: 1 μM, 0–24 hours after irradiation. Here is the method:
Cell line γH2AX and 53BP1 foci immunofluorescence and quantitation
Cells grown on coverslips or in 96-well plates were treated with 1 or 5 µM NU5455 or DMSO 1 hour prior to irradiation (0, 2.5 or 10 Gy) using an RS 320 X-ray Research System (Gulmay Medical). At set timepoints (15 or 30 minutes, or 1, 4, 5, 6, or 24 hours post-irradiation), cells were washed and fixed in methanol or 3% paraformaldehyde (PFA). Cells were blocked and permeabilized in 1% (v/v) goat serum/1% (w/v) BSA/0.1% (v/v) Triton X100 or 0.1% (v/v) Triton X100 containing 10% (w/v) dried milk powder and 2% (w/v) bovine serum albumin, followed by incubation with antibodies against γH2AX (JBW301, Millipore #05-636) and/or 53BP1 (Cell Signaling #4937). Cells were then washed and incubated with Alexa Fluor 488 goat anti-mouse and/or Alexa Fluor 568 goat anti -rabbit antibodies (A11001 or A11011 respectively, Invitrogen). In A549 and Calu-6, cells were Hoechst stained (5 µg/ml), and the average numbers of γH2AX and 53BP1 foci per cell were quantified from 400 nuclei per sample using an In Cell analyzer 1000 (GE Healthcare). For MCF7 cells, coverslips were mounted using Vectashield mounting medium with DAPI (Vector Labs) and imaged using a Leica TCS SPE confocal fluorescence microscope. Total fluorescence intensity was determined using ImagePro Plus 5.0 software (Media Cybernetics).
Clonogenic survival assays […]

Consider one compound from PMC6934184, “Selective DNA-PKcs inhibition extends the therapeutic index of localized radiotherapy and chemotherapy” (The Journal of Clinical Investigation, 2019).

`CN(C(=O)CN1CCOCC1)c1ccc2sc3c(-c4cccc5c(=O)cc(N6CC7CCC(C6)O7)oc45)cccc3c2c1` [NU5455]: in series [1] (30 mg/kg oral), the “plasma pharmacokinetic profile, CD-1 nude versus C57BL/6 mice” value is given as “comparable”. In addition, in series [1] (100 mg/kg oral, versus 30 mg/kg), the “duration of plasma concentrations” value is “longer duration”. Further, the “number of γH2AX foci” value in the series with MCF7 cells was “remained elevated even at 24 hours”.
